Earlier results, collected in patent US20090081697A1, “Methods of growing crystals of free and antibiotic complexed large ribosomal subunits, and methods of rationally designing or identifying antibiotics using structure coordinate data derived from such crystals” (Yeda Research and Development Co. Ltd., priority 2001, published 2009).

Columns and labels:
[1] = relative to erythromycin
ribosomes [2] = conditions: compared with erythromycin; Hansen et al. 1999
ribosomes [3] = conditions: Tenson et al. 1996

In the case of `CC[C@H]1OC(=O)[C@H](C)[C@@H](O[C@H]2C[C@@](C)(OC)[C@@H](O)[C@H](C)O2)[C@H](C)[C@@H](O[C@@H]2O[C@H](C)C[C@H](N(C)C)[C@H]2O)[C@](C)(O)C[C@@H](C)/C(=N\OCOCCOC)[C@H](C)[C@@H](O)[C@]1(C)O` [roxithromycin], the acid stability [1] is given as “increased acid stability relative to erythromycin”.

In the case of `CC[C@H]1OC(=O)[C@H](C)[C@@H](O[C@H]2C[C@@](C)(OC)[C@@H](O)[C@H](C)O2)[C@H](C)[C@@H](O[C@@H]2O[C@H](C)C[C@H](N(C)C)[C@H]2O)[C@](C)(OC)C[C@@H](C)C(=O)[C@H](C)[C@@H](O)[C@]1(C)O` [clarithromycin], the acid stability [1] is listed as “increased acid stability relative to erythromycin”.

For `CC[C@H]1OC(=O)[C@H](C)C(=O)[C@H](C)[C@@H](O[C@@H]2O[C@H](C)C[C@H](N(C)C)[C@H]2O)[C@](C)(OC)C[C@@H](C)C(=O)[C@H](C)[C@@H](O)[C@]1(C)O` [RU56006], the Kd (ribosomes [2]) is given as “of the same order of magnitude as that of erythromycin”.

In the case of `CC[C@H]1OC(=O)[C@H](C)[C@@H](O[C@H]2C[C@@](C)(OC)[C@@H](O)[C@H](C)O2)[C@H](C)[C@@H](O[C@@H]2O[C@H](C)C[C@H](N(C)C)[C@H]2O)[C@](C)(O)C[C@@H](C)C(=O)[C@H](C)[C@@H](O)[C@]1(C)O` [erythromycin], the “length of peptides produced by erythromycin-bound ribosomes” value (ribosomes [3]) is listed as “up to 8 residues”.
